pIC50: −log10 of the molar value. Square brackets hold non-standard residues; d marks the D form. Ends that are not written are not given here. Peptide text beside a SMILES is read from it.
Legend:
Jurkat cells = test: CXCL12 mediated cell migration, Jurkat cells; assay type: cell-based, human; conditions: 1.1 μM test article, 100 ng/ml CXCL12, 1 hour
Method: The assay was performed following a protocol similar to that described by Peng, et al., Mol Cancer Ther., 14480-90 (2015), incorporated herein by reference. Peptides were initially prepared as 1 mM stock in H2O and tested at a final concentration of 1.1 μM. […] Jurkat cells were resuspended in serum free media (RPMI+GlutaMax; Gibco/Thermo Fisher Scientific; Gaithersburg, Md.) containing 0.5% bovine serum albumin at density of 5×10^6 cells/ml. […] Cells (250,000 cells in 50 μl) supplemented with the appropriate treatments were seeded on to the upper chamber of a 96-well 5 μm HTS Transwell filter insert (Corning/Costar; Tewksbury, Mass.). […] Filter inserts were immediately placed on top of 96-well receiver trays and placed at 37° C. in a humidified atmosphere of 5% CO2/95% air for 1 hour. Following the 1 hour incubation period the filter inserts were carefully removed and the migration of cells across the filter into the bottom chamber (receiver wells) was determined by measuring ATP levels using Cell TiterGlo 2.0, according to manufacturer's instructions (Promega; Madison, Wis.); luminescence was measured using a Cytation 3 plate reader (BioTek; Winooski, Vt.).

[1] = system: CXCR4/CXCL12 induced p-MEK; test: CXCR4/CXCL12 induced p-MEK in Jurkat cells (ELISA); assay type: cell-based, human; conditions: 5 nM CXCL12, 5 min
Procedure, shortened: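 Jurkat cells in RPMI+GlutaMax containing 10% FBS and 1% penicillin/streptomycin, fresh or conditioned, were resuspended at 2×10^6 cells/ml and […] aliquots placed in tubes. After a 5 min stimulation they were pelleted, rinsed with HBSS and lysed with PMSF and protease/phosphatase inhibitors. Phospho-MEK1 (Ser217/221) was quantified by sandwich ELISA with absorbance read at 450 nm.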

human CXCR4 [2] = molecular target: T1, human CXCR4 (Homo sapiens, UniProt P61073); test: IC50 for inhibition of CXCR4 activation, β-Arrestin recruitment (Example 22); assay type: cell-based; design: host or cells: C2C12 (mouse myoblast) CXCR4 β-Arrestin PathHunter cell line
T1 sequence (P61073 whole entry, the tested form may be a part): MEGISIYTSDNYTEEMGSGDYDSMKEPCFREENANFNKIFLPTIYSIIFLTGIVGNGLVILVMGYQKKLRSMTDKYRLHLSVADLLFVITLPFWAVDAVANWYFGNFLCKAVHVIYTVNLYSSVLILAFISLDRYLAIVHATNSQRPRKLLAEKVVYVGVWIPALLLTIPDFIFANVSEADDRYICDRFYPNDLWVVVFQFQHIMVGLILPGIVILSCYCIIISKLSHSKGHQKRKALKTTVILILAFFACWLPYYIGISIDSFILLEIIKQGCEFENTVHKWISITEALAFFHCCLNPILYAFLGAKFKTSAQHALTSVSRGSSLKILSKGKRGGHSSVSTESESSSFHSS
Procedure, shortened: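 C2C12 cells co-expressing ProLink-tagged human CXCR4 and Enzyme Acceptor-tagged β-arrestin (PathHunter). Peptides tested in 10-point, 3-fold dilutions from 1 μM (1 μM–0.05 nM). Recruitment read by chemiluminescent enzyme-fragment complementation after 90 min incubation.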

human CXCR4 [3] = molecular target: T1, human CXCR4; test: CXCR4/CXCL12 binding, HTRF format, single concentration (Example 23); design: host or cells: HEK293 (Tag-lite CXCR4 cells, frozen aliquots, transient expression); conditions: 15 nM CXCR4R fluorescent probe, 3 hours, HEK293 Tag-lite CXCR4 cells
Procedure, shortened: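 Tag-lite CXCR4 cells were exposed to peptide at 400 nM final with 15 nM (EC80) fluorescent CXCR4 probe for 3 h at room temperature. HTRF was read, and the 665/620 nm ratio ×10,000 measured probe bound to terbium-labelled receptor.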

human CXCR4 [4] = molecular target: T1, human CXCR4; test: IC50 for CXCR4/CXCL12 ligand binding, HTRF format (Example 24); design: host or cells: HEK293 (Tag-lite CXCR4 cells, frozen aliquots, transient expression)
Method: Peptides were initially prepared as 1 mM stock in H2O. […] Following the manufacture's protocol, a frozen aliquot of Tag-lite CXCR4 cells was thawed and immediately seeded onto 384-well plates in TLB. […] The plates were covered in aluminum foil and left at room temperature for 3 hours. Following the 3 hour incubation period, the plates were removed from the incubator and fluorescence measured using a Cytation 1 plate reader using a HTRF filter cube ([…]; BioTek; Winooski, Vt.).

[5] = system: B16F10, mouse melanoma cell line; test: Tumor growth in B16F10 syngeneic mouse cancer model; assay type: in vivo; conditions: peptide 10 mg/kg QD subcutaneous, temozolomide 50 mg/kg TIW oral gavage; for Mean (SEM) Percent Reduction in Tumor Volume vs Control: Day 11, relative to vehicle control; for Mean (SEM) Tumor Volume on Day 11: female C57Bl/6 mice, 8-10 animals per arm
Method: The effect of the peptides on tumor growth can be assessed by monitoring tumor volume in a syngeneic mouse cancer model, such as B16F10, mouse melanoma cell line. The study was performed by HD Biosciences/WuXi (San Diego, Calif.). B16F10 cells were expanded in culture for a maximum of five passages prior to implantation, until growing exponentially when harvested. On Day 0, B16F10 cells (0.2×10^6 cells in […] serum free media; >95% viable tumor cells) were implanted into the right hind flank of female C57Bl/6 mice. When a mean tumor volume of approximately 100 mm^3 (range 75-125 mm^3) was reached, tumor-bearing animals were randomized and treatments were initiated on the same day. Test peptides were resuspended in phosphate buffered saline (PBS) and administered once daily (QD) by subcutaneous injection at 10 mg/kg in 5.0 ml/kg vehicle. Vehicle (PBS) was administered QD by intraperitoneal injection in 5 ml/kg. Temozolomide was administered three times per week (TIW) by oral gavage at 50 mg/kg in 5.0 ml/kg vehicle. Animals were inspected daily over the course of 11 days for abnormalities. Tumor volumes were determined by calliper measurements twice per week and calculated according to the formula: V (mm^3)=W^2×L/2 (L=length and W=the perpendicular width of the tumor, L>W). Data are presented as the mean (SEM) of 8-10 animals per arm for tumor volume on Day 11 and percent decrease in tumor volume relative to vehicle control treatment. Treatment with a combination of test peptide and temozolomide produced a greater reduction in tumor volume compared to either vehicle control treatment or treatment with temozolomide alone.

Row | pIC50 (human CXCR4 [2]) | Percent Inhibition of CXCR4/CXCL12 Binding (400 nM peptide) (human CXCR4 [3]) | pIC50 (human CXCR4 [4]) | Molecule | Percent Inhibition of CXCL12 Mediated Migration (1.1 μM Test Article) (Jurkat cells) | Percent Inhibition of CXCR4/CXCL12 Induced p-MEK (100 nM Test Article) [1] | Percent Inhibition of CXCR4/CXCL12 Induced p-MEK (1 μM Test Article) [1] | Mean (SEM) Percent Reduction in Tumor Volume vs Control [5] | Mean (SEM) Tumor Volume on Day 11 [5]
1 | 7.96 | 79% | 8.30 | CC(C)C[C@H](NC(=O)[C@H](CO)NC(=O)[C@H](CO)NC(=O)[C@H](CCCNC(=N)N)NC(=O)[C@@H](NC(=O)[C@H](CO)NC(=O)[C@H](Cc1c[nH]cn1)NC(=O)[C@H](Cc1c[nH]cn1)NC(=O)[C@H](Cc1ccc(O)cc1)NC(=O)[C@H](CCCNC(=N)N)NC(=O)[C@H](CCC(=O)O)NC(=O)[C@@H](N)CC(C)C)C(C)C)C(=O)N[C@@H](CCCNC(=N)N)C(=O)N1CCC[C@H]1C(=O)N[C@@H](Cc1ccc(O)cc1)C(=O)N[C@H](C(=O)N[C@@H](CCCCN)C(N)=O)[C@@H](C)O [compound 56] (H-LERYHHSVRSSLRPYTK-NH2; N-terminus assumed) | 83% | 69% | 98% |  | 
2 | 8.40 | 88% | 8.22 | CC(C)C[C@H](NC(=O)[C@H](CO)NC(=O)[C@H](CO)NC(=O)[C@H](CCCNC(=N)N)NC(=O)[C@@H](NC(=O)[C@H](CO)NC(=O)[C@H](Cc1c[nH]cn1)NC(=O)[C@H](Cc1c[nH]cn1)NC(=O)[C@H](Cc1ccc(O)cc1)NC(=O)[C@H](CCCNC(=N)N)NC(=O)[C@H](CCC(=O)O)NC(=O)[C@@H](N)CC(C)C)C(C)C)C(=O)N[C@@H](CCCNC(=N)N)C(=O)NCC(=O)N[C@@H](Cc1ccc(O)cc1)C(=O)N[C@H](C(=O)N[C@@H](CCCCN)C(=O)O)[C@@H](C)O [compound 80] (H-LERYHHSVRSSLRGYTK-OH; N-terminus and C-terminus assumed) | 71% | 52% | 96% |  | 
3 | 7.48 | 77% | 8.15 | CC(C)C[C@H](NC(=O)[C@H](CO)NC(=O)[C@H](CO)NC(=O)[C@H](CCCNC(=N)N)NC(=O)[C@@H](C)NC(=O)[C@H](CO)NC(=O)[C@H](Cc1c[nH]cn1)NC(=O)[C@H](Cc1c[nH]cn1)NC(=O)[C@H](Cc1ccc(O)cc1)NC(=O)[C@H](CCCNC(=N)N)NC(=O)[C@H](CCC(=O)O)NC(=O)[C@@H](N)CC(C)C)C(=O)N[C@@H](CCCNC(=N)N)C(=O)N1CCC[C@H]1C(=O)N[C@@H](Cc1ccc(O)cc1)C(=O)N[C@H](C(=O)N[C@@H](CCCCN)C(N)=O)[C@@H](C)O [compound 57] (H-LERYHHS[dA]RSSLRPYTK-NH2; N-terminus assumed) | 30% | 10% | 72% |  | 
4 | 8.40 | 81% | 7.96 | CC(C)C[C@H](NC(=O)[C@H](CO)NC(=O)[C@H](CO)NC(=O)[C@H](CCCNC(=N)N)NC(=O)[C@@H](NC(=O)[C@H](CO)NC(=O)[C@H](Cc1c[nH]cn1)NC(=O)[C@H](Cc1c[nH]cn1)NC(=O)[C@H](Cc1ccc(O)cc1)NC(=O)[C@H](CCCNC(=N)N)NC(=O)[C@H](CCC(=O)O)NC(=O)[C@@H](N)CC(C)C)C(C)C)C(=O)N[C@@H](CCCNC(=N)N)C(=O)N1CCC[C@H]1C(=O)N[C@@H](Cc1ccc(O)cc1)C(=O)N[C@@H](CO)C(=O)N[C@@H](CCCCN)C(=O)O [compound 75] (H-LERYHHSVRSSLRPYSK-OH; N-terminus and C-terminus assumed) | 81% | 60% | 100% |  | 
5 | 8.52 | 79% | 8.10 | CC(C)C[C@H](NC(=O)[C@H](CO)NC(=O)[C@H](CO)NC(=O)[C@H](CCCNC(=N)N)NC(=O)[C@@H](NC(=O)[C@H](CO)NC(=O)[C@H](Cc1c[nH]cn1)NC(=O)[C@H](Cc1c[nH]cn1)NC(=O)[C@H](Cc1ccccc1)NC(=O)[C@H](CCCNC(=N)N)NC(=O)[C@H](CCC(=O)O)NC(=O)[C@@H](N)CC(C)C)C(C)C)C(=O)N[C@@H](CCCNC(=N)N)C(=O)N1CCC[C@H]1C(=O)N[C@@H](Cc1ccc(O)cc1)C(=O)N[C@H](C(=O)N[C@@H](CCCCN)C(=O)O)[C@@H](C)O [compound 54] (H-LERFHHSVRSSLRPYTK-OH; N-terminus and C-terminus assumed) | 54% | 46% | 92% |  | 
6 |  |  |  | Cn1nnc2c(C(N)=O)ncn2c1=O [Temozolomide, reference compound] |  |  |  | 37.9% | 1190 mm^3
7 |  |  |  | LERYHHS(dA)RSSLRPYT (LERYHHS[dA]RSSLRPYT) [SEQ ID NO: 5] |  |  |  | 7.2% | 1770 mm^3
8 |  |  |  | LERYHHSVRSSLRPYTK (LERYHHSVRSSLRPYTK-NH2) [SEQ ID NO: 4] |  |  |  | 14.9% | 1620 mm^3
9 | 8.30 | 88% | 8.22 | CC(C)C[C@H](NC(=O)[C@@H](NC(=O)[C@H](CO)NC(=O)[C@H](CCCNC(=N)N)NC(=O)[C@@H](NC(=O)[C@H](CO)NC(=O)[C@H](Cc1c[nH]cn1)NC(=O)[C@H](Cc1c[nH]cn1)NC(=O)[C@H](Cc1ccc(O)cc1)NC(=O)[C@H](CCCNC(=N)N)NC(=O)[C@H](CCC(=O)O)NC(=O)[C@@H](N)CC(C)C)C(C)C)[C@@H](C)O)C(=O)N[C@@H](CCCNC(=N)N)C(=O)N1CCC[C@H]1C(=O)N[C@@H](Cc1ccc(O)cc1)C(=O)N[C@H](C(=O)N[C@@H](CCCCN)C(=O)O)[C@@H](C)O [compound 74] (H-LERYHHSVRSTLRPYTK-OH; N-terminus and C-terminus assumed) | 61% | 48% | 93% |  | 

Source: patent publication US20220395553A1, “CXCR4 ANTAGONIST PEPTIDES” (COHBAR, INC., priority 2019, published 2022)
